The text below walks through data of patent US12037344B2, “NLRP3 modulators” (INNATE TUMOR IMMUNITY, INC., priority 2018, dated 2024).

pEC50: −log10 of the molar value. Counter-ions that a name gives are not always drawn. Like-named read-outs stand apart in the source and are kept apart here.

For one experiment, the target named is T1, TLR8 (Homo sapiens, UniProt Q9NR97).
T1 construct: human HEK-Blue cells co-expressing a TLR7 or TLR8 gene
T1 sequence (Q9NR97 27-1041): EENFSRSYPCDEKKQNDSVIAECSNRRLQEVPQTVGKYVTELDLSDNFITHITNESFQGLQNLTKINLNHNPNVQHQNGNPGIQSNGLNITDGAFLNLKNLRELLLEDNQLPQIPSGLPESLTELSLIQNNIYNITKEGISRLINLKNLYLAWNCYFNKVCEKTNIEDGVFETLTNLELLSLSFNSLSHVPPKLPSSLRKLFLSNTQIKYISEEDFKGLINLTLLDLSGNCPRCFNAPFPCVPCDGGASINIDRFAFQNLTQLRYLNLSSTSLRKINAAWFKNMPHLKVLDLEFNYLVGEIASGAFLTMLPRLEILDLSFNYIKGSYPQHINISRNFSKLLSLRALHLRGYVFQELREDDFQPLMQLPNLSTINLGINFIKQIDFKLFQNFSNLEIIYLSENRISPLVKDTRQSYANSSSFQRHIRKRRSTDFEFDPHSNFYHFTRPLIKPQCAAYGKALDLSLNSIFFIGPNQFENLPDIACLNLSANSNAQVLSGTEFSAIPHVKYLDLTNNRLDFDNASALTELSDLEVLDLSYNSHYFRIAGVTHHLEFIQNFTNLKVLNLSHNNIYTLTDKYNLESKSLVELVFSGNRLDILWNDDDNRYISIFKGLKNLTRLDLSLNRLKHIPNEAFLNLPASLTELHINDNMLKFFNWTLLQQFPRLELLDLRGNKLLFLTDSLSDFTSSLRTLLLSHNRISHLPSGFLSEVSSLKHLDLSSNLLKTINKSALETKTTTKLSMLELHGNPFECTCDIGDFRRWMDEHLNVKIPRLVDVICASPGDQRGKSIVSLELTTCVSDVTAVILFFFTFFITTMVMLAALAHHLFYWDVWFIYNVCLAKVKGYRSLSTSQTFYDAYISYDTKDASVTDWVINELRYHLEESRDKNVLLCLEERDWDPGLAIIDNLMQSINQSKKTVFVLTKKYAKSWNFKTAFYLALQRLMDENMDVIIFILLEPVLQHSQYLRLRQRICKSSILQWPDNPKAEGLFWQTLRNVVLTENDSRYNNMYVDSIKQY
Nature of the experiment: In vitro human TLR8 binding reporter assay (HEK-Blue, NF-kB/AP1-inducible SEAP). It is filed as cell-based. Particulars: read-out: TLR8 Agonist EC50. The gist of the method:
(§1)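 Cells are seeded and grown for 24 h. Compounds or DMSO are then added and incubated 18 h at 37 °C. Quanti-Blue is added, and SEAP is read after thirty minutes. EC50 values are normalized, with RLU from 50 μM reference standard setting 100% Ymax.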
In general terms: In a reporter assay the amount or activity of a reporter protein is the signal.

The next experiment deals with THP-1 cells. The experiment is described as follows: Measurement of IL-1β production, hTRF protocol (second alternative procedure), THP-1 cells. The experiment is classed as cell-based, human. Particulars: read-out: NLRP3 hILIB EC50. The gist of the method: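 THP-1 cells differentiated overnight with 50 ng/ml PMA, then plated at 50,000 cells/well in RPMI with 2% FBS onto serial compound dilutions (top final concentration 10 μM) for 2 hours at 37° C. Supernatant IL-1β measured by hTRF (antibodies at 1:40, overnight at 4° C), read at 665/615 nm against a standard curve.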

The next experiment deals with T2, TLR7 (Homo sapiens, UniProt Q9NYK1).
T2 construct: human HEK-Blue cells co-expressing a TLR7 or TLR8 gene
T2 sequence (Q9NYK1 27-1049): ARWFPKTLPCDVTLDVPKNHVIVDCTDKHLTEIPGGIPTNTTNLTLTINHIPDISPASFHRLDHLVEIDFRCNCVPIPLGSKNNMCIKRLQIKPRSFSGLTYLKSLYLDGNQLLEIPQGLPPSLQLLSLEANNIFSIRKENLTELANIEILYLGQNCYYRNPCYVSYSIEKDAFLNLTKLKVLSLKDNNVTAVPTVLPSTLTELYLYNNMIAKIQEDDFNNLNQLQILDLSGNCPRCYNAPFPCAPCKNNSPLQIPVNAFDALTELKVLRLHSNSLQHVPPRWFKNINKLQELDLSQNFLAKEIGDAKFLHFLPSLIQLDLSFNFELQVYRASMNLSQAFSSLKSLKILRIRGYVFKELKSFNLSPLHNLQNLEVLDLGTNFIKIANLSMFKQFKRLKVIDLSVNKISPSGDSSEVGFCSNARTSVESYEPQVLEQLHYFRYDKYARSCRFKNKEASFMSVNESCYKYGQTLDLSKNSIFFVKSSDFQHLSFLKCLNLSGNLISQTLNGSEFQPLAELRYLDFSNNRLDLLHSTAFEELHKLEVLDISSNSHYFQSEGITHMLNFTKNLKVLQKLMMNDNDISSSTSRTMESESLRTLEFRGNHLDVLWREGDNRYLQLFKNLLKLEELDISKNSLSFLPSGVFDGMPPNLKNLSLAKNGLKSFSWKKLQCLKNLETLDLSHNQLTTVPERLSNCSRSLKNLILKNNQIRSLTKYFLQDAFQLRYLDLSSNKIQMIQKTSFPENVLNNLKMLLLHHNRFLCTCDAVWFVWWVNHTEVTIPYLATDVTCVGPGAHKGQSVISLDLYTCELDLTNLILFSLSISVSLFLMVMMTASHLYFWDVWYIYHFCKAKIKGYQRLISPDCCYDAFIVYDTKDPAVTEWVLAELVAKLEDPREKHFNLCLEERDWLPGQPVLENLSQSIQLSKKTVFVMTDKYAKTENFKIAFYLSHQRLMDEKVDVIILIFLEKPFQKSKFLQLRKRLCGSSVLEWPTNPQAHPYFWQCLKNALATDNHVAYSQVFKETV
Nature of the experiment: In vitro human TLR7 binding reporter assay (HEK-Blue, NF-kB/AP1-inducible SEAP). It is filed as cell-based. To be noted: read-out: TLR7 Agonist EC50. A digest of the protocol:
as §1

The mark [1] stands for this setting: Homo sapiens, THP-1, IL-1β production, human.
Setting [2] is: Homo sapiens, THP-1, IL-1β production, human cells.

As usually defined, the pEC50 is −log10 of the EC50, conventionally taken in molar units. `CS(=O)(=O)CCCn1cc2c(n1)c(N)nc1cc(-c3cc[nH]n3)ccc12` [Example 171]: the pEC50 was below 4.00 on TLR8 (activity range class), 6.22 in the experiment on THP-1 cells (setting [1]) and below 4.00 at TLR7 (activity range class).
`Nc1nc2cc(-c3ccn[nH]3)ccc2c2nn(CC3(C(=O)NCC(F)F)CC3)cc12` [Example 606]: the pEC50 at TLR8 (activity range) was below 4.00; in the experiment with THP-1 cells (setting [2]) it was 5.61; on TLR7 (activity range) it was below 4.00.
For the compound `CC(=O)NC(C)Cn1ncc2c(N)nc3cc(-c4cc[nH]n4)ccc3c21` (stereo not drawn) [Example 429], the pEC50 at TLR8 (activity range) was below 4.00; with THP-1 cells (setting [2]) it was 4.89; at TLR7 (activity range), below 4.00.
As for `COCCn1cc2c(N)nc3cc(-c4cc[nH]n4)c(F)cc3c2n1` [Example 406], the pEC50 was below 4.00 at TLR8 (activity range), 6.35 in the experiment with THP-1 cells (setting [2]) and below 4.00 on TLR7 (activity range).
`Nc1nc2cc(-c3cc[nH]n3)ccc2c2[nH]c(CCNC(=O)c3cc(F)ccn3)cc12` [Example 416]: the pEC50 at TLR8 (activity range) was below 4.00; in the experiment with THP-1 cells (setting [2]), 6.82; at TLR7 (activity range), below 4.00.
For `Nc1nc2cc(-c3cc[nH]n3)ccc2c2cn(CCCN3CCOCC3)nc12` [Example 27], the values for the pEC50 on TLR8 (activity range class), in the experiment with THP-1 cells (setting [1]) and at TLR7 (activity range class) were below 4.00, 6.37 and below 4.00, respectively.
Turning to `CC(C(=O)N1CC[C@H](C#N)C1)n1cc2c(N)nc3cc(-c4ccn[nH]4)ccc3c2n1` (stereo partly drawn) [Example 580], the figures for the pEC50 on TLR8 (activity range), in the experiment with THP-1 cells (setting [2]) and on TLR7 (activity range) were below 4.00, 4.70 and below 4.00, respectively.
With `Nc1nc2cc(-c3cc[nH]n3)ccc2c2nn(C3CCC(O)C3)cc12` (stereo not drawn) [Example 339], the negative-log EC50 (pEC50) at TLR8 (activity range class) is below 4.00; in the experiment on THP-1 cells (setting [1]) it was 6.68; on TLR7 (activity range class), below 4.00.
`COC(C)Cn1cc2c(N)nc3cc(-c4cc[nH]n4)ccc3c2n1` (single isomer, unassigned) [Example 346]: the pEC50 at TLR8 (activity range class) is below 4.00; with THP-1 cells (IL-1β production, human), 6.19; at TLR7 (activity range class) it was below 4.00.
`Nc1nc2cc(-c3cc[nH]n3)ccc2c2cn(CCN3Cc4cc(Cl)ccc4C3=O)nc12` [Example 104, 2-{2-[4-amino-7-(1H-pyrazol-3-yl)-2H-pyrazolo[3,4-c]quinolin-2-yl]ethyl}-5-chloro-2,3-dihydro-1H-isoindol-1-one]: the figures for the pEC50 at TLR8 (activity range class), in the experiment on THP-1 cells (setting [1]) and at TLR7 (activity range class) were 4.70 to 6.00, 6.89 and 4.00 to 4.70, respectively.
On to `CC(C)(CO)n1cc2c(N)nc3cc(-c4cc[nH]n4)ccc3c2n1` [Example 407, 2-(4-amino-7-(1H-pyrazol-3-yl)-2H-pyrazolo[4,3-c]quinolin-2-yl)-2-methylpropan-1-ol, TFA], for which the pEC50 at TLR8 (activity range) is below 4.00; with THP-1 cells (IL-1β production, human cells) it was 6.30; on TLR7 (activity range) it was below 4.00.
As to `N#CC[C@@H](O)Cn1cc2c(N)nc3cc(-c4cc[nH]n4)ccc3c2n1` [Example 381], the pEC50 on TLR8 (activity range class) is below 4.00; in the experiment on THP-1 cells (setting [1]), 6.13; at TLR7 (activity range class), below 4.00.
Take `CC1(O)CCCC1n1cc2c(N)nc3cc(-c4cc[nH]n4)ccc3c2n1` (single isomer, unassigned) [Example 345]: the pEC50 on TLR8 (activity range class) was below 4.00; in the experiment with THP-1 cells (IL-1β production, human), 5.69; at TLR7 (activity range class), below 4.00.
On to `Nc1nc2cc(-c3ccn[nH]3)ccc2c2[nH]c(CCO)cc12` [Example 442], for which the results for the pEC50 at TLR8 (activity range), in the experiment with THP-1 cells (setting [2]) and on TLR7 (activity range) were below 4.00, 6.72 and below 4.00, respectively.
Consider `C[C@H](CO)Cn1cc2c(n1)c(N)nc1cc(-c3cc[nH]n3)ccc12` [Example 399], for which the pEC50 is below 4.00 at TLR8 (activity range), 6.64 in the experiment with THP-1 cells (setting [2]) and below 4.00 at TLR7 (activity range).
With `Nc1nc2cc(-c3cc[nH]n3)ccc2c2nn(CCO)cc12` [Example 209, 2-(4-amino-7-(1H-pyrazol-3-yl)-2H-pyrazolo[4,3-c]quinolin-2-yl)ethan-1-ol], the figures for the pEC50 at TLR8 (activity range class), in the experiment with THP-1 cells (setting [1]) and on TLR7 (activity range class) were below 4.00, 6.72 and below 4.00, respectively.
In the case of `Nc1nc2cc(-c3cc[nH]n3)ccc2c2cn(CCCc3cccnc3)nc12` [Example 26], the pEC50 at TLR8 (activity range class) was below 4.00; in the experiment on THP-1 cells (setting [1]), 6.01; at TLR7 (activity range class), below 4.00.
Consider `CN(C)CCCn1cc2c(n1)c(N)nc1cc(-c3cc[nH]n3)ccc12` [Example 22], for which the pEC50 at TLR8 (activity range class) was below 4.00; in the experiment on THP-1 cells (setting [1]) it was 6.20; on TLR7 (activity range class) it was 4.00 to 4.70.
Take `Nc1nc2cc(-c3cc[nH]n3)ccc2c2c1cnn2C1CCOC1` (stereo not drawn) [Example 240]: the figures for the pEC50 at TLR8 (activity range class), in the experiment on THP-1 cells (setting [1]) and at TLR7 (activity range class) were below 4.00, 6.21 and below 4.00, respectively.
In the case of `Nc1nc2cc(-c3cc[nH]n3)c(F)cc2c2nn(CCO)cc12` [Example 404], the figures for the pEC50 on TLR8 (activity range), with THP-1 cells (setting [2]) and on TLR7 (activity range) were below 4.00, 6.13 and below 4.00, respectively.
Regarding `COC1CCN(C(=O)CC(C)n2cc3c(N)nc4cc(-c5cc[nH]n5)ccc4c3n2)CC1` (stereo not drawn) [Example 623], the pEC50 on TLR8 (activity range) is below 4.00; in the experiment on THP-1 cells (setting [2]), 4.76; at TLR7 (activity range) it was below 4.00.
`CCOCCn1cc2c(n1)c(N)nc1cc(-n3cccn3)ccc12` [Example 10, 2-(2-ethoxyethyl)-7-(1H-pyrazol-1-yl)-2H-pyrazolo[3,4-c]quinolin-4-amine]: the pEC50 on TLR8 (activity range class) is 4.70 to 6.00; in the experiment on THP-1 cells (setting [1]) it was 6.00; at TLR7 (activity range class) it was 4.00 to 4.70.
For the compound `CC(C(=O)NCc1ccccc1)n1cc2c(N)nc3cc(-c4ccn[nH]4)ccc3c2n1` (stereo not drawn) [Example 571], the pEC50 on TLR8 (activity range) was below 4.00; in the experiment with THP-1 cells (setting [2]) it was 5.69; on TLR7 (activity range) it was below 4.00.
`CCN1CCCC1Cn1cc2c(N)nc3cc(-c4ccn[nH]4)ccc3c2n1` (stereo not drawn) [Example 274]: the pEC50 was below 4.00 on TLR8 (activity range class), 6.22 in the experiment on THP-1 cells (setting [1]) and below 4.00 at TLR7 (activity range class).
For the compound `CC(C)(O)CCn1cc2c(n1)c(N)nc1cc(-c3ccn[nH]3)ccc12` [Example 452], the figures for the negative logarithm of the EC50 (pEC50) on TLR8 (activity range), in the experiment on THP-1 cells (setting [2]) and on TLR7 (activity range) were below 4.00, 6.40 and below 4.00, respectively.
Consider `Nc1nc2cc(-c3cc[nH]n3)ccc2c2cn(CCNc3ccccn3)nc12` [Example 194, 7-(1H-pyrazol-3-yl)-2-(2-(pyridin-2-ylamino)ethyl)-2H-pyrazolo[3,4-c]quinolin-4-amine], for which the pEC50 on TLR8 (activity range class) is below 4.00; with THP-1 cells (setting [1]), 6.66; at TLR7 (activity range class) it was below 4.00.
